# Measured values as given in patent US20230123334A1, “AMINO LIPID COMPOUND, PREPARATION METHOD THEREFOR, AND APPLICATION THEREOF” (SHENZHEN SHENXIN BIOTECHNOLOGY CO., LTD., priority 2020, published 2023).
# What was measured:
# HEK293 cells [1] = assay: Preliminary screening as DNA vectors, GFP transfection of HEK293 cells; type: cell-based; settings: HEK293 cells; lipid/DOPE liposome with 75 ng plasmid DNA (psin-EGFP-IRES-Puro); number of cells expressing GFP divided by total number of nuclei (Hoechst)
# How it was run: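 HEK293 cells in DMEM/10% FBS transfected with 75 ng EGFP plasmid per well complexed with amino lipid/DOPE liposomes in pH 5.6 sodium acetate. Hoechst nuclear stain added 20-24 h post-transfection, then cells cultured another 20-24 h. Confocal imaging gives GFP-positive cells as % of total nuclei.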
# HEK293 cells [2] = assay: Preliminary screening as mRNA vectors, EGFP mRNA transfection of HEK293 cells; type: cell-based; settings: HEK293 cells, 96-well plates, EGFP mRNA 50 ng per well; percentage of GFP fluorescent cells relative to total number of cells (Hoechst)
# How it was run: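 HEK293 cells in DMEM plus 10% FBS transfected in 96-well format with 50 ng EGFP mRNA per well; Lipofectamine2000 served as positive control. Read-out is the percentage of GFP-fluorescent cells among total cells, counted by Hoechst nuclear stain.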
SMILES,Absolute DNA transfection efficiency in HEK293 cells (HEK293 cells [1]),Absolute mRNA transfection efficiency in HEK293 cells (HEK293 cells [2])
CCCCCCCCCCCCCNc1nc(NCCCCCCCCCCCCC)nc(NCCCN2CCOCC2)n1 [Compound N13N13D8],1.4%,0.3%
CCCCCCCCCCCCCNc1nc(NCCCCCCCCCCCCC)nc(NCCCN2CCN(C)CC2)n1 [Compound N13N13D9],1.1%,0.2%
CCCCCCCCCCCCCNc1nc(NCCCCCCCCCCCCC)nc(NCC2CCN(C)CC2)n1 [Compound N13N13D10],0.3%,2.9%
CCCCCCCCCCCCCCCNc1nc(NCCCCCCCCCCCCC)nc(NCCN(C)C)n1 [Compound N13N15D1],1.5%,1.4%
CCCCCCCCCCCCCCCNc1nc(NCCCCCCCCCCCCC)nc(NCCN2CCOCC2)n1 [Compound N13N15D2],0.0%,1.4%
CCCCCCCCCCCCCCCNc1nc(NCCCCCCCCCCCCC)nc(NCCN2CCCC2)n1 [Compound N13N15D3],1.4%,4.7%
CCCCCCCCCCCCCCCNc1nc(NCCCCCCCCCCCCC)nc(NCCN2CCCCC2)n1 [Compound N13N15D4],0.0%,0.0%
CCCCCCCCCCCCCCCNc1nc(NCCCCCCCCCCCCC)nc(NCCN2CCN(C)CC2)n1 [Compound N13N15D5],0.2%,0.8%
CCCCCCCCCCCCCCCNc1nc(NCCCCCCCCCCCCC)nc(NCCCN(C)C)n1 [Compound N13N15D6],0.3%,0.0%
CCCCCCCCCCCCCCCNc1nc(NCCCCCCCCCCCCC)nc(NCCN(CC)CC)n1 [Compound N13N15D7],0.8%,3.7%
CCCCCCCCCCCCCCCNc1nc(NCCCCCCCCCCCCC)nc(NCCCN2CCOCC2)n1 [Compound N13N15D8],0.0%,0.0%
CCCCCCCCCCCCCCCNc1nc(NCCCCCCCCCCCCC)nc(NCCCN2CCN(C)CC2)n1 [Compound N13N15D9],0.2%,0.5%
CCCCCCCCCCCCCCCNc1nc(NCCCCCCCCCCCCC)nc(NCC2CCN(C)CC2)n1 [Compound N13N15D10],0.0%,0.4%
CCCCCCCCCCCCCCCCNc1nc(NCCCCCCCCCCCCC)nc(NCCN(C)C)n1 [Compound N13N16D1],0.8%,1.5%
CCCCCCCCCCCCCCCCNc1nc(NCCCCCCCCCCCCC)nc(NCCN2CCOCC2)n1 [Compound N13N16D2],0.0%,1.4%
CCCCCCCCCCCCCCCCNc1nc(NCCCCCCCCCCCCC)nc(NCCN2CCCC2)n1 [Compound N13N16D3],0.4%,1.6%
CCCCCCCCCCCCCCCCNc1nc(NCCCCCCCCCCCCC)nc(NCCN2CCCCC2)n1 [Compound N13N16D4],1.0%,4.0%
CCCCCCCCCCCCCCCCNc1nc(NCCCCCCCCCCCCC)nc(NCCN2CCN(C)CC2)n1 [Compound N13N16D5],0.0%,0.4%
CCCCCCCCCCCCCCCCNc1nc(NCCCCCCCCCCCCC)nc(NCCCN(C)C)n1 [Compound N13N16D6],1.0%,3.8%
CCCCCCCCCCCCCCCCNc1nc(NCCCCCCCCCCCCC)nc(NCCN(CC)CC)n1 [Compound N13N16D7],1.5%,0.6%
CCCCCCCCCCCCCCCCNc1nc(NCCCCCCCCCCCCC)nc(NCCCN2CCOCC2)n1 [Compound N13N16D8],0.0%,3.3%
CCCCCCCCCCCCCCCCNc1nc(NCCCCCCCCCCCCC)nc(NCCCN2CCN(C)CC2)n1 [Compound N13N16D9],0.0%,1.4%
CCCCCCCCCCCCCCCCNc1nc(NCCCCCCCCCCCCC)nc(NCC2CCN(C)CC2)n1 [Compound N13N16D10],0.0%,1.1%
